# From PubChem BioAssay AID1963835 (Molecular Pharmacology Branch, DTP, NCI, 2024)
# “And” between values parts separate entries of the source, which are not always exact repeats. Identical values can stand only once.
# Tested on: 699152-130-R-J1-PDC complex spheroid viability
# Assay: Anticancer human tumor 699152-130-R-J1-PDC patient-derived pancreatic carcinoma cell line growth inhibition [POLQ]
# Conditions: for viability, T/C: stronger effect = lower value
# Description: Multicellular complex tumor spheroid response to Polymerase (POL) inhibitors (novobiocin, ART-558, RP6685) in combination with a variety of drugs and investigational agents in selected tumor cell lines
# The POL inhibitors (novobiocin, ART-558, and RP6685) were evaluated both individually and in combination with standard of care and investigational anticancer small molecules within a complex spheroid model of solid tumors. . Complex spheroids include a stromal component modeled by human endothelial cells (HUVEC) and fibroblasts modeled by human mesenchymal stem cells (MSCs). The concentration ranges selected for each drug and investigational agent were based upon clinically achievable concentrations if the clinical Cmax of the agent was known.
# Compounds. The drugs and investigational agents: novobiocin (NSC847541), ART-558 (NSC835418), RP-6685 (NSC848927), peposertib (NSC802822), ceralasertib (NSC780249), elimusertib (NSC800525), camonsertib (NSC841442), AZD-1390 (NSC803789), olaparib (NSC753686), talazoparib (NSC767125), rucaparib (NSC756644), sotorasib (NSC818433), MRTX-1133 (NSC836407), SN-38 (NSC673596), topotecan (NSC609699), epotoside (NSC141540), doxorubicin (NSC123127), gemcitabine (NSC613327), 5-fluorouracil (NSC19893), paclitaxel (NSC125973), vemurafenib (NSC761431), MSA-2 (NSC828583), SN-011 (NSC837082), adavosertib (NSC754352), prexasertib (NSC758257), carboplatin (NSC241240) and oxaliplatin (NSC266046), were obtained from the National Cancer Institute (NCI) Developmental Therapeutics Program Chemical Repository (21). The FDA-approved anticancer drug set is available from the Developmental Therapeutics Program at https://dtp.cancer.gov/organization/dscb/obtaining/. […] The stock solutions were prepared in dimethyl sulfoxide (DMSO, Sigma-Aldrich, St. Louis, MO, cat. D2650), except for the platinum compounds which were prepared in saline (Quality Biological, Gaithersburg, MD, cat. 114-055-101), at 800-fold the tested concentration and stored at -70 degrees C prior to their use. All drugs and investigational agents were tested over a range starting from a high concentration at or near the clinical Cmax and decreasing in half-log increments. If the clinical Cmax for an agent had not been determined, the highest concentration tested was 10 microM, except for SN-38, which was tested at a high concentration of 1 microM.
# Cell Culture. All cells were maintained in an incubator at 37 degrees C and 5% CO2 with 95% humidity. The PDC lines were cultured according to standard operating procedures established by the NCI PDMR (https://pdmr.cancer.gov). Table 3 of the manuscript, lists the cell lines along with the number of the three cell types plated to form the mct-spheroids and media for tumor cell growth. After thawing, all PDC lines, except 997537-175-T-J1-PDC and 415267-285-R-J2-PDC, were cultured in Matrigel-coated flasks prepared with a working solution of 1X Ham's F-12 nutrient mix, without supplementation (Thermo Fisher Scientific, cat. 11765054), 100 U/mL penicillin-streptomycin (Thermo Fisher Scientific, cat. 15140122), and 2.5% Matrigel (Corning Inc., Corning, NY, cat. 354248) for the first three passages. The two PDC lines 997537-175-T-J1-PDC and 415267-285-R-J2-PDC were cultured on uncoated flasks. The 857933-349-R-J2-PDC line was cultured in 6C/Colon 1B media containing advanced DMEM/F-12 (Thermo Fisher Scientific, cat. 12634028), 10 mM HEPES (Thermo Fisher Scientific, cat. 15630080), 1X GlutaMAX supplement (Thermo Fisher Scientific, cat. 35050061), 0.1 mg/mL primocin (InvivoGen, San Diego, CA, cat. ant-pm-2), 10% defined fetal bovine serum, heat inactivated (HyClone Laboratories Inc., Logan, UT, cat. SH30070.03HI), 50% L-WRN conditioned media (ATCC, cat. CRL-3276), 1.25 mM N-Acetyl-L-cysteine (Sigma-Aldrich, cat. A9165), 10 mM nicotinamide (Sigma-Aldrich, cat. N0636), 1X B-27 supplement (Thermo Fisher Scientific, cat. 17504044), 1X N-2 supplement (Thermo Fisher Scientific, cat. […]
# [1] = curve of first compound, second compound 0.0316 µM
# [2] = curve of first compound, second compound 0.1 µM
# [3] = curve of first compound, second compound 0.316 µM
# [4] = curve of first compound, second compound 1 µM
# [5] = curve of first compound, second compound 3.16 µM
# [6] = curve of first compound, second compound 10 µM
# [7] = second compound 0.0316 µM, first compound 0.0316 µM
# [8] = second compound 0.0316 µM, first compound 0.1 µM
# [9] = second compound 0.0316 µM, first compound 0.316 µM
# [10] = second compound 0.0316 µM, first compound 1 µM
# [11] = second compound 0.0316 µM, first compound 3.16 µM
# [12] = second compound 0.0316 µM, first compound 10 µM
# [13] = second compound 0.1 µM, first compound 0.0316 µM
# [14] = second compound 0.1 µM, first compound 0.1 µM
# [15] = second compound 0.1 µM, first compound 0.316 µM
# [16] = second compound 0.1 µM, first compound 1 µM
# [17] = second compound 0.1 µM, first compound 3.16 µM
# [18] = second compound 0.1 µM, first compound 10 µM
# [19] = second compound 0.316 µM, first compound 0.0316 µM
# [20] = second compound 0.316 µM, first compound 0.1 µM
# [21] = second compound 0.316 µM, first compound 0.316 µM
# [22] = second compound 0.316 µM, first compound 1 µM
# [23] = second compound 0.316 µM, first compound 3.16 µM
# [24] = second compound 0.316 µM, first compound 10 µM
# [25] = second compound 1 µM, first compound 0.0316 µM
# [26] = second compound 1 µM, first compound 0.1 µM
# [27] = second compound 1 µM, first compound 0.316 µM
# [28] = second compound 1 µM, first compound 1 µM
# [29] = second compound 1 µM, first compound 3.16 µM
# [30] = second compound 1 µM, first compound 10 µM
# [31] = second compound 3.16 µM, first compound 0.0316 µM
# [32] = second compound 3.16 µM, first compound 0.1 µM
# [33] = second compound 3.16 µM, first compound 0.316 µM
# [34] = second compound 3.16 µM, first compound 1 µM
# [35] = second compound 3.16 µM, first compound 3.16 µM
# [36] = second compound 3.16 µM, first compound 10 µM
# [37] = second compound 10 µM, first compound 0.0316 µM
# [38] = second compound 10 µM, first compound 0.1 µM
# [39] = second compound 10 µM, first compound 0.316 µM
# [40] = second compound 10 µM, first compound 1 µM
# [41] = second compound 10 µM, first compound 3.16 µM
# [42] = second compound 10 µM, first compound 10 µM
# 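Note: spheroids exposed to agents for 7 days before viability reading.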
# 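Throughout, for viability, T/C: percent of DMSO vehicle control viability so 100% = vehicle and 0% = no viable signal.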
compound,measurement,setting,value
C=CC(=O)N1CCN(c2nc(=O)n(-c3c(C)ccnc3C(C)C)c3nc(-c4c(O)cccc4F)c(F)cc23)C(C)C1 (stereo not drawn) + COC1C(OC(N)=O)C(O)C(Oc2ccc3c(O)c(NC(=O)c4ccc(O)c(CC=C(C)C)c4)c(=O)oc3c2C)OC1(C)C,IC50,[1],> 10000 nM
same,IC50,[2],> 10000 nM
same,IC50,[3],> 10000 nM
same,IC50,[4],> 10000 nM
same,IC50,[5],> 10000 nM
same,IC50,[6],> 10000 nM
same,"viability, T/C",[7],110%
same,"viability, T/C",[8],98%
same,"viability, T/C",[9],97.7%
same,"viability, T/C",[10],102%
same,"viability, T/C",[11],116%
same,"viability, T/C",[12],100%
same,"viability, T/C",[13],104%
same,"viability, T/C",[14],96.3%
same,"viability, T/C",[15],107%
same,"viability, T/C",[16],118%
same,"viability, T/C",[17],126%
same,"viability, T/C",[18],114%
same,"viability, T/C",[19],123%
same,"viability, T/C",[20],108%
same,"viability, T/C",[21],109%
same,"viability, T/C",[22],103%
same,"viability, T/C",[23],122%
same,"viability, T/C",[24],105%
same,"viability, T/C",[25],102%
same,"viability, T/C",[26],108%
same,"viability, T/C",[27],101%
same,"viability, T/C",[28],108%
same,"viability, T/C",[29],129%
same,"viability, T/C",[30],104%
same,"viability, T/C",[31],106%
same,"viability, T/C",[32],92.8%
same,"viability, T/C",[33],99.8%
same,"viability, T/C",[34],105%
same,"viability, T/C",[35],125%
same,"viability, T/C",[36],114%
same,"viability, T/C",[37],116%
same,"viability, T/C",[38],94.7%
same,"viability, T/C",[39],103%
same,"viability, T/C",[40],110%
same,"viability, T/C",[41],117%
same,"viability, T/C",[42],106%
CCc1cc2c(N3CCc4c(cc(Cn5ccnc5)cc4-c4cn(C)nc4C(F)(F)F)C3=O)cc(C)nc2c(OC)n1,"viability, T/C",compound 0.0316 µM,102% and 78.7% and 85.8%
same,"viability, T/C",compound 0.1 µM,92.1% and 90.3% and 81.5%
same,"viability, T/C",compound 0.316 µM,89.2% and 94.7% and 93.9%
same,"viability, T/C",compound 1 µM,95.1% and 94.6% and 98.4%
same,"viability, T/C",compound 3.16 µM,102% and 105% (2×)
same,"viability, T/C",compound 10 µM,97% and 99% and 107%
same,IC50,curve of compound,> 10000 nM
Nc1ccn(C2OC(CO)C(O)C2(F)F)c(=O)n1 (stereo not drawn) + COC1C(OC(N)=O)C(O)C(Oc2ccc3c(O)c(NC(=O)c4ccc(O)c(CC=C(C)C)c4)c(=O)oc3c2C)OC1(C)C,IC50,[1],202 nM
same,IC50,[2],262 nM
same,IC50,[3],376 nM
same,IC50,[4],264 nM
same,IC50,[5],475 nM
same,IC50,[6],765 nM
same,"viability, T/C",[7],68.1%
same,"viability, T/C",[8],52.2%
same,"viability, T/C",[9],42.9%
same,"viability, T/C",[10],48.3%
same,"viability, T/C",[11],39%
same,"viability, T/C",[12],31.2%
same,"viability, T/C",[13],73.5%
same,"viability, T/C",[14],56.1%
same,"viability, T/C",[15],48.7%
same,"viability, T/C",[16],44.8%
same,"viability, T/C",[17],35.4%
same,"viability, T/C",[18],34.3%
same,"viability, T/C",[19],64.4%
same,"viability, T/C",[20],56.6%
same,"viability, T/C",[21],49.7%
same,"viability, T/C",[22],44.4%
same,"viability, T/C",[23],46.4%
same,"viability, T/C",[24],35.4%
same,"viability, T/C",[25],70%
same,"viability, T/C",[26],51.5%
same,"viability, T/C",[27],53.3%
same,"viability, T/C",[28],45.1%
same,"viability, T/C",[29],43.2%
same,"viability, T/C",[30],40.1%
same,"viability, T/C",[31],61.7%
same,"viability, T/C",[32],55.6%
same,"viability, T/C",[33],51.4%
same,"viability, T/C",[34],51.5%
same,"viability, T/C",[35],37.1%
same,"viability, T/C",[36],40.8%
same,"viability, T/C",[37],72.1%
same,"viability, T/C",[38],56.7%
same,"viability, T/C",[39],54.8%
same,"viability, T/C",[40],51.3%
same,"viability, T/C",[41],44.1%
same,"viability, T/C",[42],38%
CC1COCCN1c1cc(C2(O)CC3CCC(C2)O3)c2cnn(-c3ccn[nH]3)c2n1 (stereo not drawn) + Nc1ccc(C#CCN(C(=O)Cc2ncc(C(F)(F)F)cc2C(F)(F)F)c2ccc(F)cc2)nn1,IC50,[1],1490 nM
same,IC50,[2],2700 nM
same,IC50,[3],1500 nM
same,IC50,[4],1380 nM
same,IC50,[5],1520 nM
same,IC50,[6],2210 nM
same,"viability, T/C",[7],85.6%
same,"viability, T/C",[8],81.3%
same,"viability, T/C",[9],60.7%
same,"viability, T/C",[10],56.8%
same,"viability, T/C",[11],42.5%
same,"viability, T/C",[12],35.1%
same,"viability, T/C",[13],86.6%
same,"viability, T/C",[14],79.1%
same,"viability, T/C",[15],68.1%
same,"viability, T/C",[16],61.3%
same,"viability, T/C",[17],48.6%
same,"viability, T/C",[18],36.2%
same,"viability, T/C",[19],94.9%
same,"viability, T/C",[20],85.7%
same,"viability, T/C",[21],66.8%
same,"viability, T/C",[22],53.6%
same,"viability, T/C",[23],44.8%
same,"viability, T/C",[24],35.9%
same,"viability, T/C",[25],104%
same,"viability, T/C",[26],83.5%
same,"viability, T/C",[27],67.2%
same,"viability, T/C",[28],53.2%
same,"viability, T/C",[29],42.5%
same,"viability, T/C",[30],30.6%
same,"viability, T/C",[31],100%
same,"viability, T/C",[32],84.6%
same,"viability, T/C",[33],65.5%
same,"viability, T/C",[34],51%
same,"viability, T/C",[35],48.9%
same,"viability, T/C",[36],40.3%
same,"viability, T/C",[37],104%
same,"viability, T/C",[38],90.9%
same,"viability, T/C",[39],65.2%
same,"viability, T/C",[40],56.8%
same,"viability, T/C",[41],51.5%
same,"viability, T/C",[42],37.1%
